Activity calls are given as the source filed them. The rule behind the calls is not given here.
Key:
HepG2 [1] = assay: Induction of apoptosis in human HepG2 cells assessed as early apoptotic cells at 5 uM incubated for 48 hrs by annexin V-FITC/propidium iodide (AV/PI) dual staining assay (reference value: 3.87%); assay type: functional
HepG2 [2] = assay: Cell cycle arrest in human HepG2 cells assessed as accumulation at G0/G1 phase at 10 uM (reference value: 92.33%); assay type: functional
U-87 MG = assay: Anticancer activity against human U-87 MG cells assessed as growth inhibition incubated for 48 hrs by MTT assay; assay type: functional, cell-based, U-87MG ATCC
HepG2 [3] = assay: Anticancer activity against human HepG2 cells assessed as growth inhibition incubated for 48 hrs by MTT assay; assay type: functional, cell-based; conditions: HepG2, 48 h
HepG2 [4] = assay: Cell cycle arrest in human HepG2 cells assessed as accumulation at G0/G1 phase at 5 uM (reference value: 92.33%); assay type: functional
SK-MEL-28 = assay: Anticancer activity against human SK-MEL-28 cells assessed as growth inhibition incubated for 48 hrs by MTT assay; assay type: functional, cell-based; conditions: SK-MEL-28, 48 h
HepG2 [5] = assay: Cell cycle arrest in human HepG2 cells assessed as accumulation at SubG1 phase at 10 uM (reference value: 7.13%); assay type: functional
HepG2 [6] = assay: Induction of apoptosis in human HepG2 cells assessed as early apoptotic cells at 10 uM incubated for 48 hrs by annexin V-FITC/propidium iodide (AV/PI) dual staining assay (reference value: 3.87%); assay type: functional
HepG2 [7] = assay: Cell cycle arrest in human HepG2 cells assessed as accumulation at SubG1 phase at 5 uM (reference value: 7.13%); assay type: functional
HepG2 [8] = assay: Induction of apoptosis in human HepG2 cells assessed as live cells at 10 uM incubated for 48 hrs by annexin V-FITC/propidium iodide (AV/PI) dual staining assay (reference value: 91.01%); assay type: functional
MDA-MB-231 = assay: Anticancer activity against human MDA-MB-231 cells assessed as growth inhibition incubated for 48 hrs by MTT assay; assay type: functional, cell-based; conditions: MDA-MB-231, 48 h
DU-145 = assay: Anticancer activity against human DU-145 cells assessed as growth inhibition incubated for 48 hrs by MTT assay; assay type: functional, cell-based; conditions: DU-145, 48 h
HeLa = assay: Anticancer activity against human HeLa cells assessed as growth inhibition incubated for 48 hrs by MTT assay; assay type: functional, cell-based
HepG2 [9] = assay: Cell cycle arrest in human HepG2 cells assessed as accumulation at S phase at 10 uM (reference value: 4.66%); assay type: functional
HEK293 = assay: Anticancer activity against human HEK293 cells assessed as growth inhibition incubated for 48 hrs by MTT assay; assay type: cell-based; conditions: HEK293, 48 h
HepG2 [10] = assay: Induction of apoptosis in human HepG2 cells assessed as late apoptotic cells at 10 uM incubated for 48 hrs by annexin V-FITC/propidium iodide (AV/PI) dual staining assay (reference value: 4.07%); assay type: functional
HepG2 [11] = assay: Cell cycle arrest in human HepG2 cells assessed as accumulation at G2/M phase at 5 uM (reference value: 3.72%); assay type: functional
A549 = assay: Anticancer activity against human A549 cells assessed as growth inhibition incubated for 48 hrs by MTT assay; assay type: functional, cell-based; conditions: A549, 48 h
HepG2 [12] = assay: Induction of apoptosis in human HepG2 cells assessed as decrease in mitochondrial membrane potential at 5 to 10 uM incubated for 48 hrs by JC-1 staining based assay relative to control; assay type: functional, cell-based; conditions: dose 5-10 µM
HepG2 [13] = assay: Cell cycle arrest in human HepG2 cells assessed as accumulation at S phase at 5 uM (reference value: 4.66%); assay type: functional
HepG2 [14] = assay: Cell cycle arrest in human HepG2 cells assessed as accumulation at G2/M phase at 10 uM (reference value: 3.72%); assay type: functional
HepG2 [15] = assay: Induction of apoptosis in human HepG2 cells assessed as nuclear condensation at 5 to 10 uM incubated for 48 hrs by Hoechst staining based assay relative to control; assay type: functional, cell-based; conditions: dose 5-10 µM
HepG2 [16] = assay: Induction of apoptosis in human HepG2 cells assessed as live cells at 5 uM incubated for 48 hrs by annexin V-FITC/propidium iodide (AV/PI) dual staining assay (reference value: 91.01%); assay type: functional
HepG2 [17] = assay: Induction of apoptosis in human HepG2 cells assessed as late apoptotic cells at 5 uM incubated for 48 hrs by annexin V-FITC/propidium iodide (AV/PI) dual staining assay (reference value: 4.07%); assay type: functional
HepG2 [18] = assay: Induction of apoptosis in human HepG2 cells assessed as necrotic cells at 10 uM incubated for 48 hrs by annexin V-FITC/propidium iodide (AV/PI) dual staining assay (reference value: 1.06%); assay type: functional
HepG2 [19] = assay: Induction of apoptosis in human HepG2 cells assessed as necrotic cells at 5 uM incubated for 48 hrs by annexin V-FITC/propidium iodide (AV/PI) dual staining assay (reference value: 1.06%); assay type: functional
NIH3T3 = assay: Anticancer activity against mouse NIH3T3 cells assessed as growth inhibition incubated for 48 hrs by MTT assay; assay type: cell-based; conditions: NIH3T3, 48 h

Structure (SMILES) | IC50 (U-87 MG) | IC50 (HepG2 [3]) | IC50 (SK-MEL-28) | IC50 (MDA-MB-231) | IC50 (DU-145) | IC50 (HeLa) | IC50 (A549) | IC50 (HEK293) | IC50 (NIH3T3) | further results
c1ccc(Sc2c(-c3cccc4ccccc34)nc3ccccn23)cc1 | > 100 µM | 9.9 µM | > 100 µM | 69.3 µM | 60.6 µM | 33.1 µM | 17.9 µM | > 100 µM | > 100 µM | Activity (HepG2 [1]): 10.32%; Activity (HepG2 [2]): 70.35%; Activity (HepG2 [4]): 86.33%; Activity (HepG2 [5]): 8.52%; Activity (HepG2 [6]): 25.45%; Activity (HepG2 [7]): 3.7%; Activity (HepG2 [8]): 55.27%; Activity (HepG2 [9]): 0.36%; Activity (HepG2 [10]): 18.94%; Activity (HepG2 [11]): 7.29%; Activity (HepG2 [12]): Active; Activity (HepG2 [13]): 2.54%; Activity (HepG2 [14]): 25.53%; Activity (HepG2 [15]): Active; Activity (HepG2 [16]): 77.51%; Activity (HepG2 [17]): 11.9%; Activity (HepG2 [18]): 0.34%; Activity (HepG2 [19]): 0.26%
c1ccc(Sc2c(-c3ccccc3)nc3ccc(-c4ccccc4)cn23)cc1 | > 100 µM | 47.8 µM | > 100 µM | 76.7 µM | 71.7 µM | 72.6 µM | 54.2 µM | > 100 µM | > 100 µM | 
c1ccc(Sc2c(-c3ccsc3)nc3ccccn23)cc1 | 58.6 µM | 49.6 µM | 69.3 µM | 62.8 µM | 85.9 µM | 76 µM | 72.9 µM | 91.7 µM | 94.1 µM | 
c1ccc(Sc2c(-c3cccs3)nc3ccccn23)cc1 | > 100 µM | 17.1 µM | 85.3 µM | 69.2 µM | 24.1 µM | 19.9 µM | 16.9 µM | > 100 µM | > 100 µM | 
CS(=O)(=O)c1ccc(-c2nc3ccccn3c2Sc2cccc3ccccc23)cc1 | 56.2 µM | 13.6 µM | 67.3 µM | 24.1 µM | 20.8 µM | 34.6 µM | 19.6 µM | 83.2 µM | 86.4 µM | 
c1ccc(Sc2c(-c3ccccc3)nc3sc4ccccc4n23)cc1 | 62.6 µM | 22.3 µM | 63.2 µM | 54.9 µM | 45 µM | 34.2 µM | 28.1 µM | > 100 µM | > 100 µM | 
Clc1ccc(Sc2c(-c3cccs3)nc3ccccn23)cc1 | > 100 µM | 59.3 µM | 77.3 µM | 73.1 µM | 92.3 µM | 74.1 µM | 69.8 µM | 93 µM | 86.1 µM | 
Clc1ccc(-c2nc3sc4ccccc4n3c2Sc2ccccc2)cc1 | > 100 µM | 57.8 µM | > 100 µM | 72.1 µM | 78 µM | 64.1 µM | 75.1 µM | > 100 µM | > 100 µM | 
Clc1ccc(Sc2c(-c3ccccc3)nc3ccccn23)cc1 | 62.8 µM | 16.9 µM | 74 µM | 57.6 µM | 76.7 µM | 36.6 µM | 27.7 µM | 91.4 µM | 88.7 µM | 
COc1cccc2c1C(=O)c1c(O)c3c(c(O)c1C2=O)C[C@@](O)(C(=O)CO)C[C@@H]3O[C@H]1C[C@H](N)[C@H](O)[C@H](C)O1 [DOXORUBICIN] | 1.7 µM | 1.8 µM | 1.8 µM | 1.6 µM | 1.4 µM | 2.1 µM |  |  |  | 
COc1cccc(OC)c1-c1nc2ccccn2c1Sc1ccccc1 | > 100 µM | 19.5 µM | > 100 µM | 75.6 µM | 22.4 µM | 32.2 µM | 21.5 µM | > 100 µM | > 100 µM | 
Clc1ccc2nc(-c3ccccc3)c(Sc3ccccc3)n2c1 | > 100 µM | 15.7 µM | 76.9 µM | 55.8 µM | 56.3 µM | 29.3 µM | 24.4 µM | > 100 µM | > 100 µM | 
Cc1ccc(-c2nc3ccc(C)cn3c2Sc2ccccc2)cc1 | 82.1 µM | 14.6 µM | 95.7 µM | 38 µM | 57.7 µM | 65.2 µM | 23.8 µM | > 100 µM | > 100 µM | 
Cc1ccc2nc(-c3ccc(Cl)cc3)c(Sc3ccccc3)n2c1 | > 100 µM | 63.1 µM | 81.5 µM | 94.5 µM | 95.1 µM | 79.9 µM | 71.5 µM | > 100 µM | > 100 µM | 

The next lines start with results.

IC50 (U-87 MG) | IC50 (HepG2 [3]) | IC50 (SK-MEL-28) | IC50 (MDA-MB-231) | IC50 (DU-145) | IC50 (HeLa) | IC50 (A549) | Structure (SMILES) | IC50 (HEK293) | IC50 (NIH3T3) | further results
> 100 µM | 54.2 µM | 83.9 µM | > 100 µM | 76.8 µM | > 100 µM | 58.4 µM | COc1ccc(-c2nc3ccccn3c2Sc2ccccc2)cc1 | > 100 µM | 91.7 µM | 
26.9 µM | 7.6 µM | 67.7 µM | 23.5 µM | 52.1 µM | 30 µM | 13.6 µM | CSc1ccc(-c2nc3ccccn3c2Sc2ccccc2)cc1 | > 100 µM | > 100 µM | Activity (HepG2 [1]): 18.94%; Activity (HepG2 [2]): 63.48%; Activity (HepG2 [4]): 83.03%; Activity (HepG2 [5]): 1.57%; Activity (HepG2 [6]): 27.63%; Activity (HepG2 [7]): 11.43%; Activity (HepG2 [8]): 48.22%; Activity (HepG2 [9]): 1.07%; Activity (HepG2 [10]): 23.93%; Activity (HepG2 [11]): 10.85%; Activity (HepG2 [12]): Active; Activity (HepG2 [13]): 0.56%; Activity (HepG2 [14]): 34.97%; Activity (HepG2 [15]): Active; Activity (HepG2 [16]): 65.61%; Activity (HepG2 [17]): 15.17%; Activity (HepG2 [18]): 0.22%; Activity (HepG2 [19]): 0.28%
> 100 µM | 67.9 µM | > 100 µM | > 100 µM | 83.3 µM | 86.7 µM | 94.3 µM | Cc1ccc(-c2nc3ccccn3c2Sc2ccccc2)cc1 | > 100 µM | > 100 µM | 
61.7 µM | 50.2 µM | > 100 µM | > 100 µM | 84.5 µM | 52.1 µM | 56.2 µM | CCc1ccc(-c2nc3ccccn3c2Sc2ccccc2)cc1 | > 100 µM | > 100 µM | 
77.2 µM | 13.2 µM | 61.9 µM | 72.7 µM | 67.8 µM | 70.6 µM | 23.2 µM | CS(=O)(=O)c1ccc(-c2nc3ccccn3c2Sc2ccccc2)cc1 | > 100 µM | > 100 µM | 
30.2 µM | 13.9 µM | 73.1 µM | 24.5 µM | 30.7 µM | 62 µM | 22 µM | Clc1ccc(-c2nc3ccccn3c2Sc2ccccc2)cc1 | > 100 µM | > 100 µM | 
65.5 µM | 15.7 µM | 67.5 µM | 17.8 µM | 76.5 µM | 64.2 µM | 35.2 µM | N#Cc1ccc(-c2nc3ccccn3c2Sc2ccccc2)cc1 | > 100 µM | > 100 µM | 
